Experimental data as given in patent US5516905A, “Antibiotic compounds and methods to treat gram-positive bacterial and mycoplasmal infections” (priority 1994, dated 1996).
Values after ≈ are worked out from the molar mass of the structure shown. Where two headings read alike, the source gives them in different places.

Legend:
[1] = test system: M. pulmonis strain KD735-15; experiment: Mycoplasmal growth inhibition on agar (colony formation, cfu); type: cell-based, Mycoplasma pulmonis; details: for IC99: Mycoplasmopsis pulmonis, KD73515, series 100, 50, 25, 12.5 and 6.25 μM, read-out: Concentration required to inhibit colony formation by 99%
Protocol: M. pulmonis strain KD735-15 (construction described in Bhugra and Dybvig, 1992) was propagated in mycoplasmal medium, and colony-forming units (cfu) were assessed on agar as previously described (Dybvig and Cassell, 1987). M pulmonis is a representative species which is well characterized. Other publicly available strains may also be used. For example, Mycoplasma agalactiae, ATCC 35890, Mycoplasma arthritidis ATCC 13988, Mycoplasma bovigenitalium, ATCC 14173, Mycoplasma bovirhinis, ATCC 27748, Mycoplasma bovis, ATCC 25025, Mycoplasma felis, ATCC 23391, Mycoplasma gallinaceum, ATCC 33550, Mycoplasma gallinarum, ATCC 15319, Mycoplasma gallisepticum, ATCC 15302, Mycoplasma genitalium, ATCC 33530, Mycoplasma hominis, ATCC 14027, Mycoplasma hyorhinis, ATCC 17981, Mycoplasma hyosynoviae, ATCC 25591, Mycoplasma meleagridis, ATCC 25294, Mycoplasma orale, ATCC 15539, Mycoplasma pneumoniae, ATCC 15293, Mycoplasma pullorum, ATCC 33553, Mycoplasma pulmonis, ATCC 14267, Mycoplasma putrefaciens, ATCC 15718, Mycoplasma synoviae, ATCC 25204, may also be used. The inhibitors used here were prepared as described in Wright and Brown ((1990) Pharmac. Ther. 47:447-497) and were prepared at a stock concentration of 20 mM in dimethyl sulphoxide (DMSO). Growth inhibition was examined on agar by comparing cfu obtained on medium lacking or supplemented with antibiotic. DMSO alone at concentrations as high as 1% had no effect on growth or cfu capacity of M. pulmonis.
HPUra and 25 other agents selected from a large collection of structurally related compounds (Wright and Brown, 1990, Pharmac. Ther. 47:447-497) were tested against M. pulmonis at a concentration of 200 μM as described in the Experimental procedures.

[2] = biological target: T1, M. pulmonis peak A pol activity (Pol III); experiment: DNA polymerase activity assay, M. pulmonis peak A pol (Bio-Rex 70); type: biochemical; details: Fraction 7 from peak A; dGTP 10 μM; arylazopyrimidines reduced to hydrazino forms
T1 construct: we prepared a crude extract of M. pulmonis; endogenous in cells; host or cells: M. pulmonis (strain KD735-15 was the strain propagated)
T1 sequence (P13267 whole entry): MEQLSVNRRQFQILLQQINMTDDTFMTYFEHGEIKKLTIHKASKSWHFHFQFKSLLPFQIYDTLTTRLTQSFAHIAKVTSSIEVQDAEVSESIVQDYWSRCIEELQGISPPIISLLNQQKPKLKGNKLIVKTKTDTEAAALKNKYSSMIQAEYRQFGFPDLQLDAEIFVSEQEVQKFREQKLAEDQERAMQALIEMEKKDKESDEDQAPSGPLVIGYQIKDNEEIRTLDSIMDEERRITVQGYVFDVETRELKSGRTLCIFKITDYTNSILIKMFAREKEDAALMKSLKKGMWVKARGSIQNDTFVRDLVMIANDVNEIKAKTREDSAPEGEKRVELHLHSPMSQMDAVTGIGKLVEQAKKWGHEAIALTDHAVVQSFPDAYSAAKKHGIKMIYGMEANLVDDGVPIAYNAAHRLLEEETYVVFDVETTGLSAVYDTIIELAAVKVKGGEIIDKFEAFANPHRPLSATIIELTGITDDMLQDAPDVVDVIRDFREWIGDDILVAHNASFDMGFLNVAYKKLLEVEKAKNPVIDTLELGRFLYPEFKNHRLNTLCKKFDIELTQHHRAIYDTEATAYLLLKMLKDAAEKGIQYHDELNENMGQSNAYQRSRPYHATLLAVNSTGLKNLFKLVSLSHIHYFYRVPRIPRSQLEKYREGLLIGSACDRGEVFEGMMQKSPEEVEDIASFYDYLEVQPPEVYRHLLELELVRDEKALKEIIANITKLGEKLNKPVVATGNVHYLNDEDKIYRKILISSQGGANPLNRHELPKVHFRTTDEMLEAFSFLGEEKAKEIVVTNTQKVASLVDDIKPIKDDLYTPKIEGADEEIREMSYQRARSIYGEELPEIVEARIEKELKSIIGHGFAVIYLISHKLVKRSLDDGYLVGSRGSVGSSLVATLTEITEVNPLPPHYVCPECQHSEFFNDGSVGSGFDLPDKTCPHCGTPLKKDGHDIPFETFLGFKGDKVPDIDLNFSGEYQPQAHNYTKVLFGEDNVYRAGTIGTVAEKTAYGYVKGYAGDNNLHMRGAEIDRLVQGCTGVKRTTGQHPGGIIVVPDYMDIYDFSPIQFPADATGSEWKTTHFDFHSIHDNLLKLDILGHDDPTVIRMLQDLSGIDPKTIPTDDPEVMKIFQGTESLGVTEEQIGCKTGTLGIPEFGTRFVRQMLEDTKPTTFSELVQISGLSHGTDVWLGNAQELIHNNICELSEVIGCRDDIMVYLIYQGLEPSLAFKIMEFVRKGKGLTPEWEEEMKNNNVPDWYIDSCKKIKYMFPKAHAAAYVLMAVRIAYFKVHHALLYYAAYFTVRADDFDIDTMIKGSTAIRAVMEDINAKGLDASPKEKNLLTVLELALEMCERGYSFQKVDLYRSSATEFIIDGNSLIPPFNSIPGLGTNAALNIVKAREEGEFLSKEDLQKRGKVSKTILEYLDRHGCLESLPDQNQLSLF
Protocol: (§1) Fraction Va (Bio-Rex 70 chromatography): Fraction IV was diluted with column buffer containing 1% Triton X-100 to reduce the concentration of NaCl to 25 mM, and then applied to a 2 ml Bio-Rex 70 (Bio-Rad) column equilibrated in column buffer containing 1% Triton X-100+25 mM NaCl. The column was washed with 5 ml of the same buffer, and the adsorbed enzyme was eluted in two distinct peaks (designated A and B) at approximately 0.15 and 0.30M NaCl, respectively. As the top panel of the figure indicates, peak A represents the HPUra-sensitive pol activity. Peak A was pooled to generate Fraction Va.
(§2) DNA pol activity was assayed as described (Barnes et al., NuC. Acids Res., 6:1203-19 (1979)), using activated calf-thymus DNA as template primer, […] [^3 H-methyl]-dTTP as the labelled dNTP substrate, and dATP, dCTP, and dGTP at 25 μM each. For determination of IC50 values of TMAU and the four arylazopyrimidines (summarized in Table 2), the concentration of dGTP was reduced from 25 to 10 μM. TMAU was used directly in enzyme assays, and arylazopyrimidines were reduced prior to assay to the active, hydrazino forms, using sodium dithionite as described by Wright and Brown (1977) J. Med. Chem. 20:1181-1185.
(§3) Five compounds were used to assess the sensitivity of peak A pol activity to HPUra-type inhibitors. These were the four compounds used in the growth experiment described above (HPUra, PUra, PCPUra, and MCPUra) as well as TMAU (6-([…]) uracil), a `second generation` derivative of the HPUra prototype, equivalent in mechanism and target specificity (Wright and Brown, 1990). The IC50 value (the concentration required for 50% inhibition) of each of these agents was determined for the peak A pol activity and for an inhibitor-sensitive control enzyme, B. subtilis Pol III.

B. subtilis Pol III = biological target: T2, B. subtilis Pol III (Bacillus subtilis, UniProt P13267); experiment: DNA polymerase activity assay, B. subtilis Pol III; type: biochemical; details: dGTP 10 μM; arylazopyrimidines reduced to hydrazino forms
T2 construct: B. subtilis Pol III was prepared and used as described by (Barnes); made in house
T2 sequence (P13267 whole entry): as above
Protocol: as §2, §3

Wild-Type BS = experiment: Minimal inhibitory concentration vs. growth of B. subtilis; type: cell-based; details: Bacillus subtilis
Methicillin-Resistant SA = experiment: Minimal inhibitory concentration vs. growth of methicillin-resistant Staphylococcus aureus; type: cell-based
Control SA = experiment: Minimal inhibitory concentration vs. growth of Staphylococcus aureus (control strain); type: cell-based
[3] = test system: T3, exo activity of peak A pol; experiment: Exo activity of peak A enzyme on 3'-labelled ssDNA; type: biochemical, M. pulmonis; details: TMAU 50 μM, dsDNA, plus 500 μM dATP
T3 construct: we prepared a crude extract of M. pulmonis; endogenous in cells; host or cells: M. pulmonis (strain KD735-15 was the strain propagated)
T3 sequence (P13267 whole entry): as above
Protocol: (§4) Exo activity was assayed as described by Low et al. (1976), supra, using denatured calf-thymus DNA incorporating [^3 H]-dTMP residues at the 3'-OH ends.
(§5) TMAU at 50 μM inhibited ssDNA digestion by about 70% in the presence of dsDNA. When the latter mixture was supplemented with 500 μM dGTP, the specific antagonist of TMAU-induced sequestration inhibition was reduced to a level of <3%.

[4] = biological target: T4, exo activity of peak A pol (Bacillus subtilis, UniProt P13267); experiment: Exo activity of peak A enzyme on 3'-labelled ssDNA; type: biochemical, M. pulmonis; details: for inhibition at 50 µM: read-out: Inhibition of ssDNA digestion
T4 construct: we prepared a crude extract of M. pulmonis; endogenous in cells; host or cells: M. pulmonis (strain KD735-15 was the strain propagated)
T4 sequence (P13267 whole entry): as above
Protocol: as §4, §5

[5] = biological target: T5, M. pulmonis peak A pol activity (Pol III) (Bacillus subtilis, UniProt P13267); experiment: DNA polymerase activity assay, M. pulmonis peak A pol (Bio-Rex 70); type: biochemical; details: 200 μM HPUra
T5 construct: we prepared a crude extract of M. pulmonis; endogenous in cells; host or cells: M. pulmonis (strain KD735-15 was the strain propagated)
T5 sequence (P13267 whole entry): as above
Protocol: as §1, §2, §3

mammalian cells = details: cited from earlier work
[6] = test system: M. pulmonis peak B pol activity; experiment: DNA polymerase activity assay, M. pulmonis peak B pol (Bio-Rex 70); type: biochemical; details: 200 μM HPUra
Protocol: as §1, §2
To characterize the HPUra-sensitive pol activity further, we purified it using a five-step scheme summarized in Table 1 and described in the Experimental procedures. […]

[7] = nucleotide 500 μM, no TMAU, sequestering conditions with dsDNA

In the case of Oc1cc(N=Nc2ccc(Cl)cc2)nc(O)n1 [PCPUra, 6-(p-chlorophenylazo) uracil], the IC99 [1] is reported as < 6.25 µM, the IC50 [2] is reported as 31 µM and the IC50 (B. subtilis Pol III) is reported as 57 µM.
For O=c1cc(N=Nc2cccc(Cl)c2)[nH]c(=O)[nH]1 [MCPUra, 6-(m-chlorophenylazo)uracil], the IC99 [1] was 12.5 µM, the IC50 [2] was 17 µM and the IC50 (B. subtilis Pol III) was 48 µM.
O=c1cc(Nc2ccc3c(c2)CCC3)[nH]c(=O)[nH]1 [TMAU, 6-(3',4'-trimethylanilino) uracil] showed an IC50 [2] of 11 µM, an MIC (Wild-Type BS) of 23 µg/mL (≈ 94.5 µM) and an MIC (Methicillin-Resistant SA) of 4 µg/mL (≈ 16.4 µM). The MIC (Control SA) was 8 µg/mL (≈ 32.9 µM), the IC50 (B. subtilis Pol III) was 8 µM and the “Effect of dATP on level of inhibition of ssDNA digestion” value [3] was “no significant effect”. The “Exo Activity (%)” value ([4]; TMAU 50 μM + dGTP 500 μM, sequestering conditions with dsDNA) was 98%, the activity at 50 µM ([4]; TMAU 50 μM alone, sequestering conditions with dsDNA) was 31% and the inhibition at 50 µM ([4]; TMAU 50 μM, dsDNA, plus 500 μM dGTP) was < 3%. The inhibition at 50 µM ([4]; TMAU 50 μM, in the presence of dsDNA) was ~70% and the “Exo activity on ssDNA, sensitivity” value ([4]; TMAU 50 μM, ssDNA without dsDNA, preliminary, results not shown) was “resistant”.
COc1cccc(OC)c1C(=O)N[C@@H]1C(=O)N2[C@@H]1SC(C)(C)[C@@H]2C(=O)O [Methicillin] gave an MIC (Methicillin-Resistant SA) of 128 µg/mL (≈ 336 µM) and an MIC (Control SA) of 1 µg/mL (≈ 2.63 µM).
CCCn1c(=O)cc(Nc2ccc3c(c2)CCC3)[nH]c1=O [nC3 H7] gave an MIC (Wild-Type BS) of 3.5 µg/mL (≈ 12.3 µM).
With CCCCn1c(=O)cc(Nc2ccc3c(c2)CCC3)[nH]c1=O [nC4 H9] the MIC (Wild-Type BS) was 1.8 µg/mL (≈ 6.01 µM), the MIC (Methicillin-Resistant SA) was 0.5 µg/mL (≈ 1.67 µM) and the MIC (Control SA) was > 128 µg/mL.
In the case of O=c1cc(N=Nc2ccc(O)cc2)[nH]c(=O)[nH]1 [HPUra, 6-(p-Hydroxyphenylazo)-uracil], the “Inhibition of colony formation” value ([1]; 200 μM) is reported as “completely inhibited colony formation”, the “Sensitivity of peak A pol activity” value [5] is reported as “drug-sensitive” and the IC50 [2] is reported as 14 µM. The “Toxicity in mammalian cells” value (mammalian cells) was “low toxicity”, the IC50 (B. subtilis Pol III) was 11 µM and the “Sensitivity of peak B pol activity” value [6] was “insensitive”.
For CCn1c(=O)cc(Nc2ccc3c(c2)CCC3)[nH]c1=O [C2 H5], the MIC (Wild-Type BS) was 4 µg/mL (≈ 14.7 µM), the MIC (Methicillin-Resistant SA) was 0.5 µg/mL (≈ 1.84 µM) and the MIC (Control SA) was 1 µg/mL (≈ 3.69 µM).
In the case of Nc1nc2c(ncn2[C@H]2C[C@H](O)[C@@H](COP(=O)(O)OP(=O)(O)OP(=O)(O)O)O2)c(=O)[nH]1 [dGTP], the “Exo Activity (%)” value [4, 7] is reported as 103%.
With Nc1ncnc2c1ncn2[C@H]1C[C@H](O)[C@@H](COP(=O)(O)OP(=O)(O)OP(=O)(O)O)O1 [dATP] the “Exo Activity (%)” value [4, 7] was 101%.
Work on O=c1cc(N=Nc2ccccc2)[nH]c(=O)[nH]1 [PUra, 6-(phenylazo)uracil] yielded an IC99 [1] of 6.25 to 12.5 µM, an IC50 [2] of 20 µM and an IC50 (B. subtilis Pol III) of 34 µM.
Cn1c(=O)cc(Nc2ccc3c(c2)CCC3)[nH]c1=O [CH3] gave an MIC (Wild-Type BS) of 7 µg/mL (≈ 27.2 µM).
